According to patent publication US12593845B2 (priority 2019, dated 2026):

Tests used:
Aspergillus niger = experiment: Antimicrobial test against Aspergillus niger; format: cell-based; settings: 96 h, Vogel medium, 25° C., 4 days in the dark, turbidity at 405 nm, read-out: growth inhibition rate
Protocol: Spores of Aspergillus niger were added to and dispersed in a Vogel medium, and a dihydropyrimidine compound dissolved in dimethyl sulfoxide was added and mixed thereto at 25 ppm. The resulting solution was dispensed onto a 96-well microplate and cultivated in the dark at 25° C. for 4 days.
After the cultivation, the turbidity at a wavelength of 405 nm was measured by a microplate reader and compared with that in the untreated case to determine the growth inhibition of Aspergillus niger (%) was determined.

[1] = test system: apple scab pathogen (Venturia inaequalis); experiment: Apple scab control test; format: in vivo; settings: 336 h, 125 ppm drug solution sprayed onto apple seedlings (Orin), lesion area ratio 2 weeks after inoculation
Protocol: (§1) 5 parts by weight of the dihydropyrimidine compound of the present invention, 93.5 parts by weight of N,N-dimethylformamide, and 1.5 parts by weight of polyoxyethylene sorbitan monolaurate (TWEEN® 20) were mixed and dissolved to obtain an emulsion (I) including 5% of an active ingredient.
(§2) The control value was calculated by the following expression. Control value (%)=100−{lesion area ratio in treated group/lesion area ratio in untreated group}×100 [Expression 1]
Water was added to the emulsion (I) such that the concentration of the dihydropyrimidine compound reached 125 ppm to dissolve the emulsion, and a drug solution was obtained. Subsequently, the drug solution was sprayed onto apple seedlings (variety: “Orin”, leaf stage: 3 to 4) cultivated in seedling pots. After air drying, the seedlings were inoculated with conidiospores of an apple scab pathogen (Venturia inaequalis) (treated group). As a control, apple seedlings that were not sprayed with the drug solution were inoculated in the same manner (untreated group). The seedlings were left to stand in a humidified room at 20° C. using a 12 hour light/dark cycle.
On the day 2 weeks after the inoculation, the leaves of the apple seedlings were visually observed to determine the lesion area ratio, and the control value was calculated.

[2] = test system: wheat powdery mildew pathogen (Erysiphe graminis f. sp. tritici); experiment: Wheat powdery mildew control test; format: in vivo; settings: Blumeria graminis, 144 h; 125 ppm drug solution sprayed onto wheat seedlings (Chihoku); lesion area ratio 6 days after inoculation
Protocol: as §1, §2
Water was added to the emulsion (I) such that the concentration of the dihydropyrimidine compound reached 125 ppm to dissolve the emulsion, and a drug solution was obtained. Subsequently, the drug solution was sprayed onto wheat seedlings (variety: “Chihoku”, leaf stage: 1 to 2) cultivated in seedling pots. After air drying, conidiospores of a wheat powdery mildew pathogen (Erysiphe graminis f. sp. tritici) were sprinkled thereon for inoculation (treated group). As a control, wheat seedlings that were not sprayed with the drug solution were inoculated in the same manner as described above (untreated group). The seedlings were left to stand in a greenhouse at 20° C.
On the 6 days after the inoculation, the leaves of the wheat seedlings were visually observed to determine the lesion area ratio, and the control value was calculated.

[3] = test system: wheat powdery mildew pathogen (Erysiphe graminis f. sp. tritici); experiment: Wheat powdery mildew seed treatment test; format: in vivo; settings: Blumeria graminis, 168 h; seed treatment 100 g/100 kg wheat seeds (Chihoku); inoculation after 8 to 10 days; lesion area ratio 7 days after inoculation
Protocol: as §1, §2
The emulsion (I) was used to treat seeds such that (weight of dihydropyrimidine compound)/(weight of seeds) reached 100 g/100 kg based on the wheat seeds (variety: “Chihoku”). These seeds were disseminated in pots, and after 8 to 10 days, conidiospores of a wheat powdery mildew pathogen (Erysiphe graminis f. sp. tritici) were sprinkled thereon for inoculation (treated group). As a control, wheat seedlings that were not treated with the drug were inoculated in the same manner as described above (untreated group). The seedlings were left to stand in a greenhouse at 20° C.
(§3) On the 7 days after the inoculation, the leaves of the wheat seedlings were visually observed to determine the lesion area ratio, and the control value was calculated.

[4] = test system: wheat powdery mildew pathogen (Erysiphe graminis f. sp. tritici); experiment: Wheat powdery mildew soil irrigation treatment test; format: in vivo; settings: Blumeria graminis, 168 h; soil irrigation with 10 ml of 100 ppm drug solution per pot, wheat (Chihoku); inoculation after 8 to 10 days; lesion area ratio 7 days after inoculation
Protocol: as §1, §2
Pots (5.5 cm×5.5 cm) in which wheat seeds (variety: “Chihoku”) were disseminated were irrigated with 10 ml of a drug solution prepared by adding water to the emulsion (I) so as to have a concentration of the dihydropyrimidine compound of 100 ppm. After 8 to 10 days, conidiospores of a wheat powdery mildew pathogen (Erysiphe graminis f. sp. tritici) were sprinkled thereon for inoculation (treated group). As a control, wheat seedlings that were not treated with the drug were inoculated in the same manner as described above (untreated group). The seedlings were left to stand in a greenhouse at 20° C.
as §3

SMILES | inhibition at 25 ppm (Aspergillus niger) | pest or weed control at 125 ppm [1] | pest or weed control at 125 ppm [2] | pest or weed control at 100 g/100 kg seed [3] | pest or weed control at 100 ppm [4]
CCO/N=C(\C)c1cn(CC(OC)c2cc(F)ccc2OC)c(=O)n(CCN(C)C(=O)C(C)C)c1=O (stereo not shown) [A-97] | ≥ 50% | ≥ 75% | ≥ 75% |  | 
COc1ccc(F)cc1C(Cn1cc(C=NOC(C)C)c(=O)n(CC(=O)NC(C)C)c1=O)OCCC#N (stereo not shown) [A-84] |  | ≥ 75% | ≥ 75% |  | 
COc1ccc(F)cc1C(O)Cn1cc(C=NOC(C)C)c(=O)n(C(C)C(=O)N2CCCCC2)c1=O (stereo not shown) [A-90] | ≥ 50% | ≥ 75% | ≥ 75% |  | 
CCO/N=C(\C)c1nn(CC(O)c2cc(F)ccc2OC)c(=O)n(C[C@H](C)NC(=O)C(C)C)c1=O (stereo partly shown) [B-1] |  |  | ≥ 75% |  | 
C/C(=N\OC(C)C)c1cn(CC(O)c2ccccc2OC(C)C)c(=O)n(C[C@H](C)NC(=O)C(C)C)c1=O (stereo partly shown) [A-49] |  | ≥ 75% | ≥ 75% |  | 
CCO/N=C(\C)c1cn(CC(OC)c2cc(F)ccc2OC)c(=O)n(CCNC(=O)C(C)C)c1=O (stereo not shown) [A-96] | ≥ 50% | ≥ 75% | ≥ 75% |  | 
CCON=Cc1cn(CC(OCCC#N)c2cc(F)ccc2OC)c(=O)n(CC(C)(C)C(=O)NC(C)C)c1=O (stereo not shown) [A-7] | ≥ 50% | ≥ 75% |  |  | 
CC[C@@H](Cn1c(=O)c(/C(C)=N/OC(C)C)cn(CC(O)c2cc(F)ccc2OC)c1=O)NC(=O)N(C)C (stereo partly shown) [C-54] | ≥ 50% |  |  | ≥ 75% | 
CCN(CC)C(=O)N[C@H](Cn1c(=O)c(/C(C)=N/OC(C)C)cn(CC(O)c2cc(F)ccc2OC)c1=O)C(C)C (stereo partly shown) [C-67] |  |  |  |  | ≥ 75%
COc1ccc(F)cc1C(O)Cn1cc(C=NOC(C)C)c(=O)n(C(C)C(=O)N2CCOCC2)c1=O (stereo not shown) [A-71] |  | ≥ 75% | ≥ 75% |  | 
CCO/N=C(\C)c1cn(/C=C(\OC(=O)C(C)C)c2cc(F)ccc2OC)c(=O)n(C[C@H](C)NC(=O)C(C)C)c1=O [A-46] |  | ≥ 75% | ≥ 75% |  | 
COc1ccc(F)cc1C(O)Cn1cc(C=NOC(C)C)c(=O)n(C(C)C(=O)N2CCC2)c1=O (stereo not shown) [A-86] |  |  | ≥ 75% |  | 
CCO/N=C(\C)c1nn(CC(OCCC#N)c2cc(F)ccc2OC)c(=O)n(C(C)C(=O)NC(C)C)c1=O (stereo not shown) [B-3] |  | ≥ 75% | ≥ 75% |  | 
CCO/N=C(\C)c1cn(CC(OCCC#N)c2cc(F)ccc2OC)c(=O)n(CCNC(=O)C(C)C)c1=O (stereo not shown) [A-38, N-(2-(3-(2-(2-cyanoethoxy)-2-(5-fluoro-2-methoxyphenyl)ethyl)-5-(1-(ethoxyimino)ethyl)-2,6-dioxo-3,6-dihydropyrimidin-1(2H)-yl)ethyl)isobutyramide] | ≥ 50% | ≥ 75% | ≥ 75% |  | 
CCCC(=O)N[C@H](Cn1c(=O)c(/C(C)=N/OC(C)C)cn(CC(O)c2cc(F)ccc2OC)c1=O)C(C)C (stereo partly shown) [C-115] | ≥ 50% |  |  | ≥ 75% | 
COc1ccc(F)cc1C(O)Cn1cc(/C(C)=N/OC(C)C)c(=O)n(C[C@H](C)NC(=O)NC(C)C)c1=O (stereo partly shown) [C-191] |  |  |  |  | ≥ 75%
COc1ccc(F)cc1C(O)Cn1cc(/C(C)=N/OC(C)C)c(=O)n(CCNC(=O)C(C)C)c1=O (stereo not shown) [A-102] | ≥ 50% | ≥ 75% | ≥ 75% |  | 
COc1ccc(F)cc1C(O)Cn1cc(/C(C)=N/OC(C)C)c(=O)n(C[C@H](CCSC)NC(=O)C(C)C)c1=O (stereo partly shown) [C-176] | ≥ 50% |  |  | ≥ 75% | 
CCON=Cc1cn(CCc2ccccc2OC)c(=O)n(C(C)C(=O)N2CCCCC2)c1=O (stereo not shown) [A-105] |  | ≥ 75% | ≥ 75% |  | 

SMILES | inhibition at 25 ppm (Aspergillus niger) | pest or weed control at 125 ppm [1] | pest or weed control at 125 ppm [2] | pest or weed control at 100 g/100 kg seed [3] | pest or weed control at 100 ppm [4]
CCON=Cc1cn(CC(O)c2cc(F)ccc2OC)c(=O)n(C(C)C(=O)NC(C)C)c1=O (stereo not shown) [A-94] |  | ≥ 75% | ≥ 75% |  | 
COc1ccc(F)cc1C(Cn1cc(/C(C)=N/OC(C)C)c(=O)n(CCNC(=O)C(C)C)c1=O)OCCC#N (stereo not shown) [A-101] | ≥ 50% | ≥ 75% | ≥ 75% |  | 
CCC(=O)N[C@@H](CC)Cn1c(=O)c(/C(C)=N/OC(C)C)cn(CC(O)c2cc(F)ccc2OC)c1=O (stereo partly shown) [C-56] | ≥ 50% |  |  | ≥ 75% | 
CCON=C(C)c1cn(CC(O)c2cc(F)ccc2OC)c(=O)n(C(C)C(=O)NC(C)C)c1=O (stereo not shown) [A-31] |  | ≥ 75% | ≥ 75% |  | 
CCO/N=C(\C)c1cn(CC(O)c2cc(F)ccc2OC)c(=O)n(C[C@H](C)NC(=O)C(C)C)c1=O (stereo partly shown) [A-42] | ≥ 50% | ≥ 75% | ≥ 75% |  | 
COc1ccc(F)cc1C(Cn1cc(C=NOC(C)C)c(=O)n(C(C)C(=O)N2CCC2)c1=O)OCCC#N (stereo not shown) [A-81] |  | ≥ 75% | ≥ 75% |  | 
CCCC(=O)N[C@@H](C)Cn1c(=O)c(/C(C)=N/OC(C)C)cn(CC(O)c2cc(F)ccc2OC)c1=O (stereo partly shown) [C-135] | ≥ 50% |  |  | ≥ 75% | 
CCON=Cc1cn(CC(OCCC#N)c2cc(F)ccc2OC)c(=O)n(CCNC(=O)OC(C)(C)C)c1=O (stereo not shown) [A-18] |  | ≥ 75% | ≥ 75% |  | 
COc1ccccc1C(O)Cn1cc(/C(C)=N/OC(C)C)c(=O)n(C[C@@H](NC(=O)c2ccccc2)C(C)C)c1=O (stereo partly shown) [C-85] |  |  |  | ≥ 75% | 
CCN(C)C(=O)N[C@H](Cn1c(=O)c(/C(C)=N/OC(C)C)cn(CC(O)c2cc(F)ccc2OC)c1=O)C(C)C (stereo partly shown) [C-89] | ≥ 50% |  |  | ≥ 75% | 
COc1ccc(F)cc1C(O)Cn1cc(/C(C)=N/OC(C)C)c(=O)n(C[C@@H](NC(=O)C(C)(C)C)C(C)C)c1=O (stereo partly shown) [C-112] | ≥ 50% |  |  | ≥ 75% | 
COc1ccc(F)cc1C(O)Cn1cc(C=NOC(C)C)c(=O)n(C(C)CNC(=O)C(C)C)c1=O (stereo not shown) [A-79] | ≥ 50% | ≥ 75% | ≥ 75% |  | 
CCO/N=C(\C)c1cn(CC(OC(C)=O)c2cc(F)ccc2OC)c(=O)n(CCNC(=O)C(C)C)c1=O (stereo not shown) [A-88] | ≥ 50% | ≥ 75% |  |  | 
CCOc1ccccc1C(O)Cn1cc(/C(C)=N/OC(C)C)c(=O)n(C[C@H](C)NC(=O)C(C)C)c1=O (stereo partly shown) [A-51] | ≥ 50% | ≥ 75% | ≥ 75% |  | 
COc1ccccc1C(O)Cn1cc(/C(C)=N/OC(C)C)c(=O)n(C[C@@H](NC(=O)CC(C)C)C(C)C)c1=O (stereo partly shown) [C-97] |  |  |  | ≥ 75% | 
CCO/N=C(\C)c1cn(CC(O)c2cc(F)ccc2OC)c(=O)n(CCNC(=O)C(C)C)c1=O (stereo not shown) [A-37, N-(2-(5-(1-(ethoxyimino)ethyl)-3-(2-(5-fluoro-2-methoxyphenyl)-2-hydroxyethyl)-2,6-dioxo-3,6-dihydropyrimidin-1(2H)-yl)ethyl)isobutyramide] | ≥ 50% | ≥ 75% |  |  | 
CCON=Cc1cn(CC(O)c2cc(F)ccc2OC)c(=O)n(CC(C)(C)NC(=O)C(C)C)c1=O (stereo not shown) [A-92] |  |  | ≥ 75% |  | 
COc1cc(F)c(F)cc1C(O)Cn1cc(/C(C)=N/OC(C)C)c(=O)n(C[C@H](C)NC(=O)C(C)C)c1=O (stereo partly shown) [C-182] | ≥ 50% |  |  |  | ≥ 75%
